The test system of experiment [1] is Vesicular stomatitis virus. The class given is cell-based. The settings on record: E6SM cells; samples average MW 200 KD; FIG. 11.
A further experiment addresses T1, IL-6 receptor (Homo sapiens, UniProt P08887).
T1 construct: the line of human myeloma U266 was used, sensitive to the cytotoxic activity of IL-6, expressing its relative receptor; endogenous in cells; host or cells: U266 human myeloma cells
T1 sequence (P08887 20-468): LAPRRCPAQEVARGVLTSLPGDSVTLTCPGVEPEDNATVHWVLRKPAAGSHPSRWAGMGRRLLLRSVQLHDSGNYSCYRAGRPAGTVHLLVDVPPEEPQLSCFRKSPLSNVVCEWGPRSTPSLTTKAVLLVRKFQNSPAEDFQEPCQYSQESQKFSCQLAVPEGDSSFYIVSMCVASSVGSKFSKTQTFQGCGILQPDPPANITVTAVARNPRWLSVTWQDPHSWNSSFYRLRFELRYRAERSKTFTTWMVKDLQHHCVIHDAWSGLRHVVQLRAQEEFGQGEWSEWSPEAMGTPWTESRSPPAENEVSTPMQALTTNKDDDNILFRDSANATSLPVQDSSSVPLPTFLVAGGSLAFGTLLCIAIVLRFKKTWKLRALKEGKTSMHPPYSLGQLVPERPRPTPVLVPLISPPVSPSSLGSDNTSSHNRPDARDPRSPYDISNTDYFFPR
In words: Inhibition of the binding of 125I-IL-6 to its receptor on human myeloma U266 (radioligand binding). As to conditions: HAS degree 3, both medium and low MW; U266 cells, 1 mg/ml, 125I-IL-6 0.08 nM, 4° C. 16 hours; FIG. 5. Here is the method:
The experimental procedure was effected as described in Taga T. et al., J Exp Med, 1987, 166:967-981. In short, the line of human myeloma U266 was used, sensitive to the cytotoxic activity of IL-6, expressing its relative receptor. […] At the end of the incubation, the cells were washed with phosphate buffer, centrifuged at 9,000 rpm and the pellet counted in a γ-counter.

Another experiment addresses T2, IL-1 receptor (Mus musculus, UniProt P13504).
T2 construct: the line of murine fibroblasts 3T3 was used, sensitive to the cytotoxic activity of IL-1, expressing its relative receptor; endogenous in cells; host or cells: 3T3 murine fibroblasts
T2 sequence (P13504 20-576): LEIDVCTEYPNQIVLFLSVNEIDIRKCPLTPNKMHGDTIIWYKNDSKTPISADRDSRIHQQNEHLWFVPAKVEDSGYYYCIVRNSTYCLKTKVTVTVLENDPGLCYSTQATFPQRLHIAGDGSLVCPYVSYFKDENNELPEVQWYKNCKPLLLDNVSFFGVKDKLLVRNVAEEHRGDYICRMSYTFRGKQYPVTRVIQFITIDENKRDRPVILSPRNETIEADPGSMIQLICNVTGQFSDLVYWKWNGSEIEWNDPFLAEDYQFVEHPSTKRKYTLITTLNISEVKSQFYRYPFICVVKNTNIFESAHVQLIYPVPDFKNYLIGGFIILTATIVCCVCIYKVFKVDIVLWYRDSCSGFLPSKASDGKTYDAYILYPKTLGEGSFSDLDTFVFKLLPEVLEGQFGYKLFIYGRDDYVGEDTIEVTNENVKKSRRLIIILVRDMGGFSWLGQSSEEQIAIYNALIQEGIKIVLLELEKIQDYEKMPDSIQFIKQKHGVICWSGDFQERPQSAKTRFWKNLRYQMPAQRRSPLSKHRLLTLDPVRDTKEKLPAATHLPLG
As to the kind of experiment: Inhibition of the binding of 125I-IL-1 to its receptor on 3T3 fibroblasts (radioligand binding). Set-up: species or system mice. As to conditions: HAS degree 3, both medium and low MW; 3T3 cells, 1 mg/ml, 125I-IL-1 10 pM, 37° C. 2 hours; FIG. 4. On the procedure:
The experimental procedure was effected as described in Chin J et al., J Exp Med, 1987, 165:70-86. In short, the line of murine fibroblasts 3T3 was used, sensitive to the cytotoxic activity of IL-1, expressing its relative receptor. […] At the end of the incubation, the cells were washed with phosphate buffer, then dissolved in 2.5 M of NaOH and counted in a γ-counter.

The next experiment concerns IL-10. In words: Protein synthesis of IL-10 in human PBMC. As to conditions: 0.1 or 1 mg/ml, 24 hours, FIG. 9 (HAS1, HAS3). The class given is cell-based. On the procedure:
For these experimentations, mononucleate cells of human peripheral blood (PBMC) were adopted, deriving from many different donors for evaluating the effect of HAS on the production of the cytokines listed above, using: • non-sulfated HA (average MW: 200 KD), • HAS1 and HAS3 (prepared as described in Examples 1-3 (average MW: 200 KD). […] At day zero 100,000 cells were seeded per well (using plates with 96 wells) in 200 μl of medium RPMI 1640, to which 10% of fetal bovine serum, HEPES 10 mM, Glutamine 2 mM, 1% Penicillin-Streptomycin 100 U/ml, had been added. The effect of all the samples was evaluated on non-treated PBMC with agents which stimulate the synthesis of cytokines, or stimulated with Lipopolysaccharide LPS (10 μg/ml) (highly pro-inflammatory) or with Phytohemagglutinin PHA (10 μg/ml) (a substance capable of stimulating the lymphocytes to divide themselves), both agents capable of stimulating the synthesis of cytokines. The cells were treated separately with the three compounds at a concentration of 0.1 mg/ml or 1 mg/ml. After 24 hours of incubation at 37° C. […] The quantification of the inflammation mediators was effected by means of the SearchLight® technology, using a Custom Human 9-Plex Array plate following the protocol indicated by the supplier in the technical card.

The results in this text go back to US9808482B2, “Sulphated hyaluronic acids as regulator agents of the cytokine activity” (FIDIA FARMACEUTICI S.p.A., priority 2009, dated 2017).

Consider `Nc1nc2c(ncn2COCCO)c(=O)[nH]1` [acyclovir], for which the “antiviral activity vs VSV (inhibition of cytopathogenicity)” value in experiment [1] was “inactive”.
Regarding sulfated hyaluronic acid [HAS], on IL-6 receptor, the “inhibition of the binding of IL-6 to its receptor” value was “up to 100%”. The “inhibition of the binding of IL-1 to its receptor” value at IL-1 receptor was determined as 30%. Moreover, the “production of IL-10” value in the experiment with IL-10 was “evident stimulus”.
